Test [1] has as its system Arabidopsis thaliana cv. C24 plants. The test can be described thus: Depth of Arabidopsis root growth in growth medium after application of 6-chloronicotinic acid (6-CNA). The conditions noted are these: for Root depth, mean: after three weeks, untreated mean 2.031034. Type of test: in vivo. The method, then: Sterilization of Arabidopsis seeds: 2 min.
Low light overnight to 24 hours.
Plants are grown at 23° C. 30-50 μEinstein s^−1m^−2. 12 hours light-12 hours dark. (See FIG. 1)

The test system is the same in test [2]. The conditions noted are these: 0.7% Difco agar; for Root depth, mean: after three weeks, untreated mean 1.9475, *p < 0.01.
Description: A container (1) with a seal (2) is filled with a transparent or translucent growth medium (3), such as 0.4% agar-water or 0.7% agar-water, to which additional test-compounds may be added. One pregerminated seed is added to the tube and allowed to grow for three weeks. After three weeks of growth in vertical position, the root depth (5) of the plant (4) is measured from the top of the medium to the lowest point of the roots.
Germination medium: Half concentrated Murashige and Skoog salts; B5 vitamins; 1.5% sucrose; pH 5.8; 0.4% Difco agar.
Sterilization of Arabidopsis seeds: 2 min. 70% ethanol; 10 min. bleach (6% active chlorine)+1 drop Tween 20 for 20 ml solution; wash 5 times with sterile tap water; sterilization is done in 2 ml eppendorf tubes. Arabidopsis seeds sink to the bottom of the tube, allowing removal of the liquids by means of a 1 ml pipetman.
Pregermination of seeds: In 9 cm Optilux Petridishes (Falcon) containing 10 ml sterile tap water. Low light overnight to 24 hours.
Growing of Arabidopsis plants: Seeds are sown in 25×150 mm glass tubes (Sigma C5916) with natural (transparent) colored closure (Sigma C5791) containing ±34 ml germination medium: 1 seed/tube. The tubes are put in the two outer rows of tube holders for 40 tubes (VWR nalg5970-0025) wrapped in aluminium foil so that the roots can grow in the dark. Plants are grown at 23° C. 30-50 μEinstein s^−1m^−2. 12 hours light-12 hours dark.
After three weeks, the root depth is measured from the surface of the medium to the lowest point of root growth.

Structures are written as SMILES. Where two headings read alike, the source gives them in different places.

Regarding `O=C(O)c1ccc(Cl)nc1` [6-CNA, 6-chloronicotinic acid], the “Root depth, mean” value in test [1] (1 mg/L 6-CNA in germination medium, *p < 0.01) is on record as 2.18 mm; in test [1] (5 mg/L 6-CNA in germination medium, **p < 0.05), 2.118 mm. In addition, the “Root protrusion into growth medium compared to non-treated plants” value in test [1] (1 and 5 mg/l 6-CNA, three weeks) is “protruded deeper in the growth medium”.
On to `O=[N+]([O-])/N=C1\NCCN1Cc1ccc(Cl)nc1` [imidacloprid], for which the “Root depth, mean” value in test [2] (50 mg/L imidacloprid in germination medium) worked out at 2.1875 mm; in test [2] (100 mg/L imidacloprid in germination medium), 2.2725 mm. Besides, in test [2] (50 and 100 mg/l imidacloprid, three weeks), the “Root protrusion into growth medium compared to non-treated plants” value is on record as “protruded deeper in the growth medium”.

(Values after patent publication US8143192B2, “Methods for increasing the resistance of plants to hypoxic conditions” (Bayer Cropscience N.V., priority 2005, dated 2012).)
